In PubChem BioAssay (NCI) one finds TGI data, which are given here for twelve compounds.

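Test compounds were applied to cells in 96-well plates for 48 hours at 5 doses. TGI: concentration producing complete growth inhibition.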

Test systems include A498 renal; CCRF-CEM leukemia; EKVX NSCLC; HOP-62 NSCLC; HS 578T breast; LOX IMVI melanoma; M14 melanoma; MALME-3M melanoma; MOLT-4 leukemia; NCI-H23 lung; NCI-H522 lung; PC-3 prostate; SK-MEL-5 melanoma; SK-OV-3 ovarian; SN12C renal; SNB-75 CNS; SR leukemia; UO-31 renal.
Holding throughout (experiment): growth of human tumour cells (NCI), 48 h

Regarding `CC(C)=CCC[C@@H](C)C1=C(O)C(O)C(C)=C2N=C(c3ccccc3)C(=O)OC21` (some centres undefined), the TGI was over 13.1 µM in the assay with A498 renal; over 5.47 µM with CCRF-CEM leukemia; over 25 µM with EKVX NSCLC; 8.5 µM in the assay on HOP-62 NSCLC; 13.4 µM with HS 578T breast; over 25 µM with LOX IMVI melanoma. Besides, the TGI was over 17.8 µM with M14 melanoma; 15.4 µM with MALME-3M melanoma; over 19.3 µM in the assay on MOLT-4 leukemia; 6.15 µM in the assay with NCI-H23 lung; 1.9 µM in the assay on NCI-H522 lung; over 25 µM with PC-3 prostate. Further, the TGI in the assay with SK-MEL-5 melanoma was 6.32 µM; with SK-OV-3 ovarian, 11.1 µM; in the assay on SN12C renal it was over 25 µM; in the assay on SNB-75 CNS, over 19.3 µM; with SR leukemia, over 20.5 µM; in the assay on UO-31 renal, 14.6 µM.
`CCCCCCCCCCCCCCCCCCNc1ccn(C2OC(COP(=O)(O)OC3CC(n4cc(F)c(=O)[nH]c4=O)OC3COP(=O)(O)OCC3OC(n4ccc(N)nc4=O)C(O)C3O)C(O)C2O)c(=O)n1` (centres undefined): the TGI in the assay with A498 renal is over 100 µM; in the assay on CCRF-CEM leukemia it was 3.37 µM; with EKVX NSCLC, over 74.6 µM; with HOP-62 NSCLC, over 76.8 µM; with HS 578T breast, over 100 µM; in the assay with LOX IMVI melanoma, 20 µM. For the same compound, the TGI in the assay with M14 melanoma was 23.4 µM; with MALME-3M melanoma it was over 100 µM; in the assay with MOLT-4 leukemia it was 29.2 µM; in the assay on NCI-H23 lung it was over 45.7 µM; with NCI-H522 lung it was over 69.7 µM; in the assay with PC-3 prostate, over 66.7 µM. Further, the TGI with SK-MEL-5 melanoma was over 48.8 µM; in the assay with SK-OV-3 ovarian, over 58.8 µM; with SN12C renal it was 98.2 µM; in the assay on SNB-75 CNS it was over 100 µM; in the assay on SR leukemia, 25.6 µM; with UO-31 renal, over 51.9 µM.
For the compound `Cc1ccc2c(c1)C(=O)/C(=N/Nc1ccc(Cl)cc1)CCO2`, the TGI in the assay on A498 renal, in the assay with CCRF-CEM leukemia, with EKVX NSCLC, in the assay with HOP-62 NSCLC, with HS 578T breast and in the assay on LOX IMVI melanoma was over 100 µM each time. For the same compound, the TGI in the assay on M14 melanoma, with MALME-3M melanoma, with MOLT-4 leukemia, in the assay with NCI-H23 lung, in the assay with NCI-H522 lung and with PC-3 prostate was over 100 µM throughout. The TGI in the assay with SK-MEL-5 melanoma, in the assay with SK-OV-3 ovarian, in the assay with SN12C renal, in the assay on SNB-75 CNS, with SR leukemia and with UO-31 renal was over 100 µM in each case.
For `Nc1nc(Cl)c(N)c(NCC2(CO)CCC2)n1`, the TGI in the assay with A498 renal, in the assay on CCRF-CEM leukemia, in the assay with EKVX NSCLC, with HOP-62 NSCLC, in the assay on HS 578T breast and in the assay on LOX IMVI melanoma was over 100 µM each time. Also, the TGI in the assay with M14 melanoma, in the assay on MALME-3M melanoma, in the assay with MOLT-4 leukemia, in the assay on NCI-H23 lung, with NCI-H522 lung and with PC-3 prostate was over 100 µM each time. The TGI with SK-MEL-5 melanoma, in the assay with SK-OV-3 ovarian, in the assay on SN12C renal, in the assay on SNB-75 CNS, in the assay on SR leukemia and in the assay on UO-31 renal was over 100 µM each time.
Regarding `CC(=O)O[C@H]1CC[C@H]2[C@@H]3CCC4C(C)=NNC(=O)C4[C@H]3CC[C@]12C` (some centres undefined), the TGI is over 100 µM with A498 renal; over 100 µM in the assay on CCRF-CEM leukemia; over 100 µM in the assay on EKVX NSCLC; 57.6 µM with HOP-62 NSCLC; 64.2 µM with HS 578T breast; over 75.4 µM with LOX IMVI melanoma. The TGI in the assay on M14 melanoma is over 100 µM; in the assay on MALME-3M melanoma it was over 100 µM; in the assay on MOLT-4 leukemia, over 100 µM; with NCI-H23 lung, over 100 µM; with NCI-H522 lung it was over 86.7 µM; in the assay with PC-3 prostate it was over 100 µM. The TGI was over 100 µM in the assay on SK-MEL-5 melanoma; over 100 µM in the assay on SK-OV-3 ovarian; over 100 µM with SN12C renal; 33.7 µM in the assay on SNB-75 CNS; over 100 µM in the assay on SR leukemia; over 100 µM in the assay with UO-31 renal.
With `CN1C2CCC1CC(CCOC(c1ccc(F)cc1)c1ccc(F)cc1)C2` (centres undefined), the TGI in the assay on A498 renal stood at 36.1 µM; in the assay on CCRF-CEM leukemia, 46.1 µM; with EKVX NSCLC it was 27.7 µM; with HOP-62 NSCLC it was 30.9 µM; in the assay with HS 578T breast, 44.5 µM; in the assay with LOX IMVI melanoma it was 30.3 µM. The TGI was 32.5 µM in the assay on M14 melanoma; 29.3 µM in the assay on MALME-3M melanoma; 44 µM in the assay with MOLT-4 leukemia; 42.1 µM in the assay with NCI-H23 lung; 31.9 µM in the assay on NCI-H522 lung; 29.6 µM in the assay with PC-3 prostate. The TGI in the assay on SK-MEL-5 melanoma came to 21.3 µM; in the assay with SK-OV-3 ovarian, 31.2 µM; with SN12C renal, 38.2 µM; in the assay on SNB-75 CNS, 30.4 µM; in the assay on SR leukemia, 38.2 µM; in the assay on UO-31 renal, 27.9 µM.
As for `COCC(N=CN1CCCc2ccccc2[C@@H]1CCCCl)C(C)(C)C` (some centres undefined), the TGI is 33.5 µM with A498 renal; over 100 µM in the assay with CCRF-CEM leukemia; 88.9 µM in the assay on EKVX NSCLC; 52.9 µM with HOP-62 NSCLC; 17.6 µM in the assay with HS 578T breast; 24.2 µM in the assay with LOX IMVI melanoma. The TGI in the assay on M14 melanoma is 18.3 µM; in the assay with MALME-3M melanoma, 6.27 µM; in the assay on MOLT-4 leukemia, 15.5 µM; in the assay with NCI-H23 lung, 21.1 µM; in the assay with NCI-H522 lung it was 21.1 µM; with PC-3 prostate, 91.4 µM. Further, the TGI was found to be 9.35 µM with SK-MEL-5 melanoma; 70.1 µM in the assay on SK-OV-3 ovarian; 59 µM with SN12C renal; 11.8 µM with SNB-75 CNS; 12.2 µM in the assay with SR leukemia; 33.2 µM in the assay with UO-31 renal.
Turning to `N#C/C(=C\c1cn(Cc2ccccc2)c2ccccc12)c1nn(-c2ccccc2)c(N)c1C#N`, the TGI in the assay on A498 renal was 59.3 µM; with CCRF-CEM leukemia, 47.8 µM; in the assay on EKVX NSCLC, 27.5 µM; in the assay on HS 578T breast, over 100 µM; in the assay with LOX IMVI melanoma it was over 100 µM; in the assay with M14 melanoma, 46.1 µM. The TGI in the assay on MALME-3M melanoma was 47.4 µM; in the assay on MOLT-4 leukemia, over 100 µM; in the assay on NCI-H23 lung, 29.7 µM; in the assay with NCI-H522 lung, 34.7 µM; in the assay on PC-3 prostate, 19.8 µM; in the assay on SK-MEL-5 melanoma, 23.6 µM. Moreover, the TGI in the assay on SK-OV-3 ovarian is 40 µM; in the assay on SN12C renal it was 38.7 µM; in the assay with SNB-75 CNS it was 15.3 µM; in the assay on SR leukemia, over 100 µM; in the assay with UO-31 renal it was 26.5 µM.
Take `c1ccc2c(C3CCN(CCN4CCOCC4)C3)c[nH]c2c1` (centres undefined): the TGI in the assay with A498 renal, in the assay with CCRF-CEM leukemia, in the assay on EKVX NSCLC, with HOP-62 NSCLC, with HS 578T breast and in the assay on LOX IMVI melanoma was over 100 µM in each case. Further, the TGI in the assay on M14 melanoma, in the assay with MALME-3M melanoma, with NCI-H23 lung, in the assay on NCI-H522 lung, in the assay on PC-3 prostate and with SK-MEL-5 melanoma was over 100 µM throughout. Moreover, the TGI with SK-OV-3 ovarian, in the assay with SN12C renal, with SNB-75 CNS, in the assay with SR leukemia and in the assay with UO-31 renal was over 100 µM each time.
On to `C=C1C(=O)C23CC1C[C@H](OC(C)=O)[C@H]2C1(C)C(OC(C)=O)C[C@H](O)C(C)(C)[C@H]1C(=O)[C@@H]3OC(C)=O` (some centres undefined), for which the TGI was found to be 29.7 µM with A498 renal; 7.65 µM in the assay on CCRF-CEM leukemia; 15.7 µM in the assay with EKVX NSCLC; 42.9 µM in the assay on HOP-62 NSCLC; 15.3 µM with HS 578T breast; 10.3 µM in the assay on LOX IMVI melanoma. Also, the TGI in the assay with M14 melanoma was determined as 9.5 µM; with MALME-3M melanoma it was 5.15 µM; in the assay on MOLT-4 leukemia, 4.03 µM; in the assay with NCI-H23 lung, 15.2 µM; in the assay with NCI-H522 lung it was 3.48 µM; in the assay with PC-3 prostate it was 24.6 µM. Moreover, the TGI in the assay on SK-MEL-5 melanoma was 27.4 µM; in the assay on SK-OV-3 ovarian, 32 µM; in the assay on SN12C renal, 15.1 µM; in the assay on SNB-75 CNS it was 32.8 µM; in the assay on SR leukemia it was over 24.7 µM; in the assay on UO-31 renal it was 9.75 µM.
On to `COc1ccc2nc3c([N+](=O)[O-])ccc4c3c(c2c1)N=CN4CCCN(C)C`, for which the TGI in the assay on A498 renal turned out to be 21.4 µM; in the assay with CCRF-CEM leukemia it was 3.18 µM; in the assay with EKVX NSCLC, 16.2 µM; in the assay with HOP-62 NSCLC, 15.1 µM; with HS 578T breast it was 27.5 µM; in the assay on LOX IMVI melanoma, 8.78 µM. Moreover, the TGI was found to be 23.6 µM in the assay on M14 melanoma; 28.2 µM in the assay with MALME-3M melanoma; 0.757 µM in the assay with MOLT-4 leukemia; 18.7 µM with NCI-H23 lung; 9.61 µM in the assay with NCI-H522 lung; 13 µM with PC-3 prostate. The TGI in the assay on SK-MEL-5 melanoma amounted to 12.1 µM; in the assay with SK-OV-3 ovarian, 25.3 µM; in the assay on SN12C renal, 11.5 µM; with SNB-75 CNS it was 11.1 µM; in the assay with SR leukemia, 1.03 µM; with UO-31 renal, 10.7 µM.
Take `O=C(N/N=C/c1ccc2c(c1)OCO2)Nc1ccccc1Cl`: the TGI with A498 renal is 35.6 µM; with CCRF-CEM leukemia it was over 100 µM; in the assay on EKVX NSCLC, over 60.5 µM; in the assay on HOP-62 NSCLC, over 100 µM; in the assay on HS 578T breast, 8.25 µM; with LOX IMVI melanoma, over 100 µM. The TGI in the assay with M14 melanoma was over 39.5 µM; in the assay with MALME-3M melanoma, 56.2 µM; in the assay with MOLT-4 leukemia, over 100 µM; in the assay with NCI-H23 lung it was over 43.8 µM; in the assay on NCI-H522 lung it was 1.1 µM; in the assay with PC-3 prostate it was over 100 µM. Besides, the TGI in the assay on SK-MEL-5 melanoma was 15.3 µM; with SK-OV-3 ovarian it was over 24.9 µM; with SN12C renal it was over 46.7 µM; in the assay with SNB-75 CNS, 2.38 µM; with SR leukemia, over 34.2 µM; in the assay on UO-31 renal it was over 100 µM.
